1 molecule from patent US20240327427A1, “NEW COMPOUNDS FOR THE TREATMENT OF ALZHEIMER'S DISEASE” (Icahn School of Medicine at Mount Sinai, priority 2020, published 2024) can be followed below.

Experiment [1] deals with ATP6V1A. In words: ATP6V1A mRNA expression in drug-treated NPCs (LINCS profiles). Format: cell-based, human. The settings on record: drug-treated vs DMSO-treated, LINCS data. An excerpt:
Compounds were screened for drugs that can rescue the in vitro and in vivo phenotypes arising from ATP6V1A deficits. Using their drug repositioning tool, Ensemble of Multiple Drug Repositioning Approaches (EMUDRA) (Zhou et al., 2018b), the inventors matched the disease signature from the BM36-PHG region and the signatures of 3,629 drugs tested in the NPCs in the Library of Integrated Network-based Cellular Signatures (LINCS) project (FIG. 6A). The inventors further prioritized candidate drugs by their potential to increase the mRNA expression of ATP6V1A in the NPCs.
To identify existing drugs that can restore the molecular expression change in the LOAD brains, the inventors performed a drug repositioning analysis using EMUDRA, which provides a novel computational algorithm to match disease signatures and drug-induced signatures. The inventors downloaded drug-treated gene expression profiles (level 3 data of quantile-normalized and log 2 transformed expression levels from human iPSC-derived neural progenitor cells (NPCs) from the Library of Integrated Network-Based Cellular Signatures (LINCS) program. After removing probes sets mapping to multiple genes or without known gene annotation, the remaining data were adjusted for batch effects using linear regression. The mean expression level of multiple probe sets that match to the same gene was used as the expression level for that gene. For each drug, the applied drug signature was the transcriptome-wide expression difference between drug-treated and DMSO-treated gene expression profiles. The inventors matched each of the drug signatures to the LOAD signature using EMUDRA to find drugs that could reverse the LOAD signature. […] In total, 3,629 drug signatures were analyzed and ranked. The inventors further prioritized the top-ranked drugs that can increase ATP6V1A mRNA expression in the NPCs.

Experiment [2] concerns Aβ42 flies. Put plainly: Neurodegeneration (vacuole area) in Aβ42 fly brains after drug feeding. Format: in vivo, Drosophila. The method, then: Aβ42 flies were treated with 0, 10, or 50 μM of NCH-51 during aging to examine its effects on neurodegeneration.
Heads of male flies were fixed in 4% paraformaldehyde for 24 hours at 4° C. and embedded in paraffin. Serial sections (6 μm thickness) through the entire heads were prepared, stained with hematoxylin and eosin (Sigma-Aldrich), and examined by bright-field microscopy. Images of the sections were captured with AxioCam 105 color (Carl Zeiss). To score brain vacuolization, the inventors performed microscopy of serial brain sections within the central neuropil regions and selected the images with the most severe vacuolization from each fly to score area of vacuolization. The inventors selected the section with the most severe neurodegeneration in the same brain area from each individual fly and the area of vacuoles was measured using Image J (NIH). The analyses were performed more than two times and two to three persons were independently involved in these tasks to avoid any bias.
Flies were fed with the food containing 10 μM or 50 μM NCH51 or vehicle (final concentration 0.02% dimethyl sulfoxide) from the day after eclosion. These food vials were changed every 3-4 days.

For experiment [3], the system named is 16 genes related to synaptic biology. Put plainly: mRNA levels of key regulator genes of neuronal activity in Aβ42 fly brains. The class given is in vivo, Drosophila. The method, then: Aβ42 flies were treated with 0, 10, or 50 μM of NCH-51 during aging to examine its effects on neurodegeneration. […] More than 25 flies for each genotype were collected and frozen. Heads were mechanically isolated, and total RNA was extracted using TRIzol Reagent (Thermo Fisher Scientific) according to the manufacturer's protocol with an additional centrifugation step (16,000×g for 10 min) to remove cuticle membranes prior to the addition of chloroform. Total RNA was reverse-transcribed using PrimeScript RT-PCR kit (TaKaRa Bio), and qRT-PCR was performed using Thunderbird SYBR qPCR Mix (Toyobo) on a CFX96 real time PCR detection system (Bio-Rad Laboratories). The average threshold cycle value was calculated from at least three replicates per sample. Expression of genes of interest was standardized relative to GAPDH1. Primer sequences are provided below. Flies were fed with the food containing 10 μM or 50 μM NCH51 or vehicle (final concentration 0.02% dimethyl sulfoxide) from the day after eclosion. These food vials were changed every 3-4 days.

Experiment [4] has as its system SYN1, SCL17A7/VGLUT, PSD95, HOMER1. Put plainly: Synaptic marker mRNA and protein levels in iNs. The class given is cell-based, human. The method, then:
Quantitative reverse transcription PCR (qRT-PCR) was performed as previously described. Specifically, cell cultures were harvested with Trizol and total RNA extraction was carried out following the manufacturer's instructions. Quantitative transcript analysis was performed using a QuantStudio 7 Flex Real-Time PCR System with the Power SYBR Green RNA-to-Ct Real-Time qPCR Kit (all Thermo Fisher Scientific). Total RNA template (25 ng per reaction) was added to the PCR mix, including primers listed below. qPCR conditions were as follows; 48° C. for 30 min, 95° C. for 10 min followed by 40 cycles (95° C. for 15 s, 60° C. for 60 s). All qPCR data is collected from at least 3 independent biological replicates of one experiment. Data analyses were performed using GraphPad PRISM 6 software.
Images were captured and quantified using the Odyssey® Imaging Systems (LI-COR. Inc.).

[5] abbreviates: Aβ42 flies, 50 μM in food vs 0 μM.

Turning to `CC(C)C(=O)SCCCCCCC(=O)Nc1nc(-c2ccccc2)cs1` [NCH-51], the “ATP6V1A (log2FC)” value in experiment [1] amounted to 0.71 log2FC. Besides, in experiment [2] (21-day-old Aβ42 fly brains), the “neurodegeneration in cell body and central neuropil regions” value is “suppressed neurodegeneration”. For the same molecule, in experiment [2] (setting [5]), the “cell loss (cell body region neurodegeneration)” value is “significantly suppressed” and the neuropil degeneration entry is given as “significantly suppressed”. Moreover, the “mRNA levels of synaptic biology related genes” value in experiment [3] (dose-dependent) was “increased mRNA levels of synaptic biology related genes”. The “number of key regulator genes of neuronal activity with increased mRNA levels” value in experiment [3] (fed) is 9 out of 16. In experiment [4] (3 μM, 24-hr, iNs, P<0.001), the “SCL17A7 mRNA level” value is “dramatically elevates” and the “presynaptic SYN1 mRNA level” value was “dramatically elevates”. Further, the HOMER1 levels result in experiment [4] (ATP6V1A KD iNs or isogenic controls) is recorded as “increased the HOMER1 levels”. Besides, in experiment [4] (iNs), the “postsynaptic PSD95” value is recorded as “no effect”. In addition, in experiment [4] (iNs, 3 μM, P<0.01), the SYN1 protein level entry is listed as “similarly increased”. Moreover, the VGLUT protein level entry in experiment [4] (iNs, 3 μM, P<0.05) is “similarly increased”.
